Results reported in PubChem BioAssay AID2060483 (Molecular Pharmacology Branch, DTP, NCI, 2025).

Tested on: K24384-001-R-PDC complex spheroids, viability
Assay: Anticancer human tumor K24384-001-R-PDC patient-derived pancreatic adenocarcinoma cell line growth inhibition [GQUAD]
Settings: for IC50: curve of first compound; for viability, T/C: stronger effect = lower value
In short: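 Viability of tumor cells grown as complex spheroids with endothelial and stromal cells, exposed to drug combinations. Top concentration at or near clinical Cmax (else 10 microM), diluted in half-log increments.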

[1] = second compound 0.0316 µM, first compound 0.0316 µM
[2] = second compound 0.0316 µM, first compound 0.1 µM
[3] = second compound 0.0316 µM, first compound 0.316 µM
[4] = second compound 0.0316 µM, first compound 1 µM
[5] = second compound 0.0316 µM, first compound 3.16 µM
[6] = second compound 0.0316 µM, first compound 10 µM
[7] = second compound 0.1 µM, first compound 0.0316 µM
[8] = second compound 0.1 µM, first compound 0.1 µM
[9] = second compound 0.1 µM, first compound 0.316 µM
[10] = second compound 0.1 µM, first compound 1 µM
[11] = second compound 0.1 µM, first compound 3.16 µM
[12] = second compound 0.1 µM, first compound 10 µM
[13] = second compound 0.316 µM, first compound 0.0316 µM
[14] = second compound 0.316 µM, first compound 0.1 µM
[15] = second compound 0.316 µM, first compound 0.316 µM
[16] = second compound 0.316 µM, first compound 1 µM
[17] = second compound 0.316 µM, first compound 3.16 µM
[18] = second compound 0.316 µM, first compound 10 µM
[19] = second compound 1 µM, first compound 0.0316 µM
[20] = second compound 1 µM, first compound 0.1 µM
[21] = second compound 1 µM, first compound 0.316 µM
[22] = second compound 1 µM, first compound 1 µM
[23] = second compound 1 µM, first compound 3.16 µM
[24] = second compound 1 µM, first compound 10 µM
[25] = second compound 3.16 µM, first compound 0.0316 µM
[26] = second compound 3.16 µM, first compound 0.1 µM
[27] = second compound 3.16 µM, first compound 0.316 µM
[28] = second compound 3.16 µM, first compound 1 µM
[29] = second compound 3.16 µM, first compound 3.16 µM
[30] = second compound 3.16 µM, first compound 10 µM
[31] = second compound 10 µM, first compound 0.0316 µM
[32] = second compound 10 µM, first compound 0.1 µM
[33] = second compound 10 µM, first compound 0.316 µM
[34] = second compound 10 µM, first compound 1 µM
[35] = second compound 10 µM, first compound 3.16 µM
[36] = second compound 10 µM, first compound 10 µM
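Note: spheroids exposed to compounds for seven days.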

Work on `O=C(NO)c1cnc(N2CCN(S(=O)(=O)c3ccc4ccccc4c3)CC2)nc1` + CN(C)c1ccc(Nc2c3ccc(NC(=O)CCN4CCCC4)cc3nc3cc(NC(=O)CCN4CCCC4)ccc23)cc1 yielded an IC50 (second compound 0.0316 µM) of 603 nM, an IC50 (second compound 0.1 µM) of 511 nM and an IC50 (second compound 0.316 µM) of 553 nM. It also gave an IC50 (second compound 1 µM) of 554 nM, an IC50 (second compound 3.16 µM) of 475 nM and an IC50 (second compound 10 µM) of 476 nM. It also gave a viability, T/C [1] of 111%, a viability, T/C [2] of 91.6% and a viability, T/C [3] of 83.1%. The viability, T/C [4] was 25.2%, the viability, T/C [5] was 0.22% and the viability, T/C [6] was 0.18%. The viability, T/C [7] was 111%, the viability, T/C [8] was 97.7% and the viability, T/C [9] was 70.1%. The viability, T/C [10] was 23.5%, the viability, T/C [11] was 0.13% and the viability, T/C [12] was 0.14%. It also gave a viability, T/C [13] of 108%, a viability, T/C [14] of 126% and a viability, T/C [15] of 74.3%. It also gave a viability, T/C [16] of 23.4%, a viability, T/C [17] of 0.14% and a viability, T/C [18] of 0.18%. For the same compound, the viability, T/C [19] was 107%, the viability, T/C [20] was 117% and the viability, T/C [21] was 73.6%. The viability, T/C [22] was 24.3%, the viability, T/C [23] was 0.16% and the viability, T/C [24] was 0.16%. The viability, T/C [25] was 105%, the viability, T/C [26] was 103% and the viability, T/C [27] was 65.3%. The viability, T/C [28] was 20.6%, the viability, T/C [29] was 0.14% and the viability, T/C [30] was 0.16%. The viability, T/C [31] was 105%, the viability, T/C [32] was 92.3% and the viability, T/C [33] was 65.1%. It also gave a viability, T/C [34] of 24.7%, a viability, T/C [35] of 0.22% and a viability, T/C [36] of 0.22%.

Work on `COc1ncnc(C2CC2)c1-c1ncc2cnn(Cc3ccc(-c4nc(C(F)(F)F)cn4C(C)C)cc3)c2n1` + Cc1[nH]c2ccc(F)cc2c1-c1nc2c3cccnc3c3ncccc3c2[nH]1 yielded an IC50 (second compound 0.0316 µM) greater than 10000 nM, an IC50 (second compound 0.1 µM) greater than 10000 nM and an IC50 (second compound 0.316 µM) greater than 10000 nM. For the same compound, the IC50 (second compound 1 µM) was greater than 10000 nM, the IC50 (second compound 3.16 µM) was greater than 10000 nM and the IC50 (second compound 10 µM) was greater than 10000 nM. For the same compound, the viability, T/C [1] was 106%, the viability, T/C [2] was 109% and the viability, T/C [3] was 122%. The viability, T/C [4] was 97.5%, the viability, T/C [5] was 104% and the viability, T/C [6] was 128%. The viability, T/C [7] was 98.4%, the viability, T/C [8] was 98.7% and the viability, T/C [9] was 103%. For the same compound, the viability, T/C [10] was 85.5%, the viability, T/C [11] was 122% and the viability, T/C [12] was 134%. The viability, T/C [13] was 90.8%, the viability, T/C [14] was 107% and the viability, T/C [15] was 107%. It also gave a viability, T/C [16] of 95.6%, a viability, T/C [17] of 96.7% and a viability, T/C [18] of 118%. It also gave a viability, T/C [19] of 86.3%, a viability, T/C [20] of 96.8% and a viability, T/C [21] of 95.8%. The viability, T/C [22] was 104%, the viability, T/C [23] was 95.2% and the viability, T/C [24] was 95.7%. The viability, T/C [25] was 81.8%, the viability, T/C [26] was 89.3% and the viability, T/C [27] was 73.2%. It also gave a viability, T/C [28] of 88.7%, a viability, T/C [29] of 95.1% and a viability, T/C [30] of 84.1%. For the same compound, the viability, T/C [31] was 72.5%, the viability, T/C [32] was 102% and the viability, T/C [33] was 64.3%. It also gave a viability, T/C [34] of 73.1%, a viability, T/C [35] of 96.1% and a viability, T/C [36] of 75.5%.

In the case of `COc1cccc2c1C(=O)c1c(O)c3c(c(O)c1C2=O)CC(O)(C(=O)CO)CC3OC1CC(N)C(O)C(C)O1` (stereo not drawn) + Cc1[nH]c2ccc(F)cc2c1-c1nc2c3cccnc3c3ncccc3c2[nH]1, the IC50 (second compound 0.0316 µM) is reported as 191 nM, the IC50 (second compound 0.1 µM) is reported as 204 nM and the IC50 (second compound 0.316 µM) is reported as 203 nM. The IC50 (second compound 1 µM) was 219 nM, the IC50 (second compound 3.16 µM) was 126 nM and the IC50 (second compound 10 µM) was 80.1 nM. The viability, T/C [1] was 89.8%, the viability, T/C [2] was 70% and the viability, T/C [3] was 33.1%. It also gave a viability, T/C [4] of 17.6%, a viability, T/C [5] of 5.95% and a viability, T/C [6] of 4.77%. For the same compound, the viability, T/C [7] was 78.8%, the viability, T/C [8] was 64.8% and the viability, T/C [9] was 39.2%. For the same compound, the viability, T/C [10] was 25.6%, the viability, T/C [11] was 8.24% and the viability, T/C [12] was 4.61%. It also gave a viability, T/C [13] of 74.2%, a viability, T/C [14] of 63.4% and a viability, T/C [15] of 40.9%. For the same compound, the viability, T/C [16] was 22.4%, the viability, T/C [17] was 6.31% and the viability, T/C [18] was 4.4%. The viability, T/C [19] was 85.4%, the viability, T/C [20] was 75.3% and the viability, T/C [21] was 32.2%. The viability, T/C [22] was 27.8%, the viability, T/C [23] was 7.66% and the viability, T/C [24] was 4.24%. It also gave a viability, T/C [25] of 70.6%, a viability, T/C [26] of 55.1% and a viability, T/C [27] of 32%. For the same compound, the viability, T/C [28] was 28%, the viability, T/C [29] was 7.01% and the viability, T/C [30] was 1.96%. The viability, T/C [31] was 60.5%, the viability, T/C [32] was 49.3% and the viability, T/C [33] was 28.1%. For the same compound, the viability, T/C [34] was 20%, the viability, T/C [35] was 5.65% and the viability, T/C [36] was 1.85%.

`CC1COCCN1c1cc(C2(O)CC3CCC(C2)O3)c2cnn(-c3ccn[nH]3)c2n1` (stereo not drawn) + CN(C)c1ccc(Nc2c3ccc(NC(=O)CCN4CCCC4)cc3nc3cc(NC(=O)CCN4CCCC4)ccc23)cc1 was tested, and the IC50 (second compound 0.0316 µM) was 103 nM, the IC50 (second compound 0.1 µM) was 74.6 nM and the IC50 (second compound 0.316 µM) was 74.3 nM. The IC50 (second compound 1 µM) was 68.6 nM, the IC50 (second compound 3.16 µM) was 61.6 nM and the IC50 (second compound 10 µM) was 119 nM. It also gave a viability, T/C [1] of 56.5%, a viability, T/C [2] of 52% and a viability, T/C [3] of 33.5%. For the same compound, the viability, T/C [4] was 23.8%, the viability, T/C [5] was 25.4% and the viability, T/C [6] was 14.3%. It also gave a viability, T/C [7] of 68%, a viability, T/C [8] of 43.9% and a viability, T/C [9] of 29.6%. It also gave a viability, T/C [10] of 25.1%, a viability, T/C [11] of 26.6% and a viability, T/C [12] of 15%. The viability, T/C [13] was 70.3%, the viability, T/C [14] was 44% and the viability, T/C [15] was 24.6%. It also gave a viability, T/C [16] of 26%, a viability, T/C [17] of 27.2% and a viability, T/C [18] of 14.1%. For the same compound, the viability, T/C [19] was 62.8%, the viability, T/C [20] was 45% and the viability, T/C [21] was 27.1%. It also gave a viability, T/C [22] of 27.7%, a viability, T/C [23] of 27.3% and a viability, T/C [24] of 13.3%. The viability, T/C [25] was 63.2%, the viability, T/C [26] was 40.5% and the viability, T/C [27] was 24.9%. The viability, T/C [28] was 27.9%, the viability, T/C [29] was 24.9% and the viability, T/C [30] was 12.9%. It also gave a viability, T/C [31] of 76.2%, a viability, T/C [32] of 48.5% and a viability, T/C [33] of 35.7%. The viability, T/C [34] was 32.5%, the viability, T/C [35] was 25.4% and the viability, T/C [36] was 12.3%.
